Source: patent US9316588B2, “Bioassay method for detecting physiologically active substance” (OTSUKA PHARMACEUTICAL CO., LTD., priority 2010, dated 2016)

Tests used:
Format in all cases: cell-based
human V2R = molecular target: T1, human V2R (Homo sapiens, UniProt P30518); assay: Detection of AVP and V2R antagonist by desensitization (calcium-containing medium, addition of AVP, then forskolin)
T1 construct: The human vasopressin receptor isoform 2 (V2R) cDNA cloned in pUC18 was recloned into a pEF2 vector to prepare pEFhV2R; expressed in transfected cells; host or cells: CHO cells, transient transfection with FuGENE6, then frozen
T1 sequence (P30518 1-309 isoform P30518-2): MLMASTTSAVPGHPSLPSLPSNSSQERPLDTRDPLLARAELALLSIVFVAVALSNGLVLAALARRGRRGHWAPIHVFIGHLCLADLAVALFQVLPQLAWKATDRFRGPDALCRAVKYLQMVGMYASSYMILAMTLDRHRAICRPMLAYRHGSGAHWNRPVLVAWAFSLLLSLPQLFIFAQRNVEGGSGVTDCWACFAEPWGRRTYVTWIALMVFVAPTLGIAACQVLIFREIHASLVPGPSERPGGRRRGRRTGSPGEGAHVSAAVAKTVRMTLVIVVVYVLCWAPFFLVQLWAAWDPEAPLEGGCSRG
Source text: This method utilizes the desensitization of the cAMP dependent calcium channel to detect the activity of a V2R antagonist. […] In this state, the addition of forskolin that activates adenylate cyclase forms cAMP, which in turn activates the cAMP dependent calcium channel (e.g., CNG calcium). Thus, the calcium sensitive protein emits luminescence. […] In this state, the subsequent addition of […] desensitizes the once activated cAMP dependent calcium channel, which is no longer activated by the addition of forskolin.
1 ml (3×10^6 cells/ml) of the frozen cells prepared in 1 was thawed in a warm bath and suspended in 10 mL of a washing buffer. The suspension was centrifuged at 1000 rpm for 5 minutes. 12 mL of a culture buffer was added to the obtained precipitate, and 6 μL of 4 mM ViviRen was added thereto. The mixture was seeded at 50 μL/well into a 96-well plate. […] Subsequently, 10^−4 M forskolin was further added thereto at 50 μL/well, and the amount of luminescence was measured using a luminometer (FIG. 16).

human GLP-1 receptor [1] = molecular target: T2, human GLP-1 receptor (Homo sapiens, UniProt P43220, L260F); assay: Aequorin luminescence in frozen CHO cell lines expressing human GLP-1 receptor, modified CNG channel and modified aequorin; settings: even at a concentration 1 million times higher compared with the active forms of GLP-1; FIG. 24
T2 construct: The human GLP-1 receptor (GLP-1R) cDNA cloned in pUC18 was recloned into a pCIneo vector to prepare pCIneoGLP-1R; expressed in transfected cells; host or cells: CHO cell lines, transient transfection with FuGENE6, then frozen
T2 sequence (P43220 24-463 L260F): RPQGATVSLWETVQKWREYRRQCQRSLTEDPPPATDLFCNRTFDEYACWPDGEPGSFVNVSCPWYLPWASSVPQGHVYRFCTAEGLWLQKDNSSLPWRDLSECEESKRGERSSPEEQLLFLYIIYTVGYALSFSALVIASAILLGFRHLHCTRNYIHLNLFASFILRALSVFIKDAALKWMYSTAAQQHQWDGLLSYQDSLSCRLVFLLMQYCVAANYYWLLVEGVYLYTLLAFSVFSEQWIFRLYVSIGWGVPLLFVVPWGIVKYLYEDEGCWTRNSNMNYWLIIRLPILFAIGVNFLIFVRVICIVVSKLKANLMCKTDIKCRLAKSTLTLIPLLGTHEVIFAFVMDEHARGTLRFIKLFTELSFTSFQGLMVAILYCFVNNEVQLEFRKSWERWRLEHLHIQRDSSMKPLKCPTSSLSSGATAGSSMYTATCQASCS
Experimental: 1 ml (3×10^6 cells/ml) of the frozen cells prepared in 1 was thawed in a warm bath and suspended in 10 mL of a washing buffer.
(§1) 1 ml (3×10^6 cells/ml) of the frozen cells prepared in 1 was thawed in a warm bath and suspended in 10 mL of a washing buffer. The suspension was centrifuged at 1000 rpm for 5 minutes. 12 mL of a culture buffer was added to the obtained precipitate, and 6 μL of 4 mM ViviRen was added thereto.

human GLP-1 receptor [2] = molecular target: T2, human GLP-1 receptor; assay: GLP-1 antagonist activity in CHO cells expressing human GLP-1 receptor, GLP-1 added after culture; settings: 3 hours culture, then 10^-11 M GLP-1; FIG. 27
Experimental: as §1, with “Next, the activity of a GLP-1 antagonist was measured. 1 ml” for “1 ml”, “added thereto. The mixture was seeded at 90 μL/well into a 96-well plate.” for “added thereto.”
Exendin-4 (9-39) was added thereto at 10 μL/well, and the cells were cultured for 3 hours. 10^−11 M GLP-1 was added thereto at 10 μL/well, and the amount of luminescence was measured using a luminometer.

Compound | reactivity of the kit (human GLP-1 receptor [1]) | other results
Cc1ccccc1C(=O)Nc1ccc(C(=O)N2CCCC(O)c3cc(Cl)ccc32)c(C)c1 (stereo not drawn) [OPC-41061] | – | luminescence of forskolin after antagonist and AVP (human V2R; 10^-7 M AVP, then 10^-4 M forskolin, FIG. 16): the luminescence of forskolin was detected in a concentration dependent manner; inhibition of the action of added AVP (amount of luminescence) (human V2R; cells cultured 3 hours with compound in calcium-containing medium, then 10^-7 M AVP, FIG. 14): inhibited the action of added AVP in a concentration dependent manner
GIP: incretin acting on other receptors | hardly reacted | –
GLP-1 (9-36 amide) | hardly reacted | –
GLP-2: incretin acting on other receptors | hardly reacted | –
exendin-4 (9-39): GLP-1 receptor antagonist | – | inhibition of the agonistic action of added GLP-1 (human GLP-1 receptor [2]): inhibited the agonistic action of added GLP-1 in a concentration dependent manner
